What was measured:
[1] = test system: Parkinson's disease; details: cited from earlier work
[2] = test system: unilaterally 6-OHDA-lesioned rats; experiment: 6-OHDA rat model: L-DOPA induced AIMs and drugs screening test; format: in vivo; details: for L-DOPA induced AIMs: Example II, 30 min before test
[3] = Pharmacokinetic profiling of the fixed dose combination product; format: in vivo; details: cynomolgus monkeys, oral; for Time of maximum plasma concentration: one buspirone (IR)/zolmitriptan (CR) 10 mg/1 mg tablet (batch 0614/2012), n=4
Source text: Four non-naïve male cynomolgus monkeys (3.5 to 7 kg; Hainan Jingang Laboratory Animal Co. Ltd.) were used to evaluate the pharmacokinetics of the fixed dose combination product of the present invention. Animals were individually housed in stainless-steel mesh cages during in-life in accordance with the National Research Council “Guide for the Care and Use of Laboratory Animals” and fed twice daily with 120 g of Certified Monkey Diet daily (Beijing Vital Keao Feed Co., Ltd. Beijing, P. R. China). At test occasion, animals were fed the day before at 3:30 to 4:00 pm and the remaining food removed after approximately 1 to 1.5 hours of feeding (at 5:00 pm). Food was withheld until 4-hour post-dosage. The study was conducted in compliance with the Animal Welfare Act, the Guide for the Care and Use of Laboratory Animals, and the Office of Laboratory Animal Welfare (OLAW).
Each monkey was dosed one buspirone hydrochloride (IR)/zolmitriptan (CR) 10 mg/1 mg combination product (batch 0614/2012) orally using tablet gun, placing one tablet beyond the root of tongue. Subsequently, the animals' throat was massaged to aid passage of the tablet down the esophagus and 5-10 mL drinking water injected into its mouth using a syringe. After administration of drinking water, the animals' jaw was checked to see if the tablet was swallowed.
Blood samples were draw from a peripheral vessel from restrained, non-sedated animals at the following time points: pre-dose, 15, 30, 60 min, 2, 4, 8, 12 and 24 h post-dose into (K2) EDTA-coated tubes. Plasma was obtained from the blood samples by centrifugation (3,000×g for 10 minutes at 2 to 8° C.) within one hour of collection and stored frozen in a freezer at −70° C. until bio-analysis.
Analytes were extracted from plasma by mixing 200 μL 0.1% formic acid (FA) in 50% acetonitrile (ACN)/methanol (MeOH) containing 100 ng/mL Labetalol as internal standard with 50 μL plasma sample, followed by centrifugation (4000 rpm for 20 min).
Subsequently, 100 μL of supernatant was removed and mixed with 150 μL 0.1% FA in 25% MeOH/Water, vortexed 10 min and centrifuged for 10 min at 4000 rpm. Chromatographic separation from other constituents of the sample was achieved by ultra-performance liquid chromatography (Acquity, Waters), followed by tandem mass spectrometry (MS/MS) detection (API 4000, AB Sciex Instruments), injecting 20 μL sample. The analytes were separated by an ACE 5 phenyl (2.1×100 mm ID) column maintained at 40° C., using a gradient of A: 10 mM ammonium acetate in water and solvent B: 0.1% FA in 95% ACN)/water (table 4).
Buspirone, zolmitriptan and labetalol were detected at parent/daughter molecular mass of 386.10/122.20, 288.10/58.20 and 329.20/161.90 m/z, and a collision energy of 41, 25 and 50 eV, respectively. Retention times were 2.3, 1.3 and 2.0 min for buspirone, zolmitriptan and labetalol, respectively. Peak areas correlated linearly (r^2>0.997, 1/x^2 weighting) with buspirone and zolmitriptan concentrations in the range 0.5-1000 ng/mL. Lower limit of quantification (LLOQ) was 0.5 ng/mL for buspirone and zolmitriptan based on a signal-to-noise ratio>10:1.
The PK analysis was performed with non-linear mixed effects modelling using Phoenix NMLE 1.2 (Pharsight Corporation). A one- or two-compartment model with first-order absorption and elimination rate was fitted to the time-concentration profiles. Furthermore, model development included modelling of the data with an absorption lag-time (Tlag). To adequately characterise a potential lag-time, the plasma concentrations<LLOQ (Lower Limit of Quantification) was fixed to ½ of LLOQ (0.25 ng/mL) for the sample just prior to the first quantifiable concentration. Best model fit was evaluated based on basic goodness-of-fit plots, parameter precision, visual predictive check and objective function value. A drop in objective function value of […] for nested models with one added parameter was considered a significant improvement in model fit.

[4] = test system: LID; details: cited from earlier work
[5] = test system: unilaterally 6-OHDA-lesioned rats; details: zolmitriptan administered alone; WO2012/048710; cited from earlier work
[6] = Example VI, buspirone 0.25 or 0.5 mg/kg s.c., tandospirone 1 or 2 mg/kg i.p., 25 min before test
[7] = batch 0614/2012, non-linear mixed effects modelling
[8] = batch 0614/2012, non-linear mixed effects modelling, value (% CV)

Question: Which “Effect on Parkinson's disease or dyskinesia” value ([1]; doses 10-60 mg/day) does the source give for O=C1CC2(CCCC2)CC(=O)N1CCCCN1CCN(c2ncccn2)CC1 [buspirone, 8-[4-(4-pyrimidin-2-ylpiperazin-1-yl)butyl]-8-azaspiro[4.5]decane-7,9-dione] here?
Answer: did not have any effects on Parkinson's disease or dyskinesia

Question: What about the Disability ratings ([1]; higher doses (100 mg/day)) of the same compound?
Answer: significant worsening of disability ratings

Question: And the Effect on dyskinesia ([1]; higher doses (100 mg/day))?
Answer: reduced dyskinesia

Question: And the “L-DOPA-induced dyskinesia (AIMs)” value ([2]; Example I, buspirone 0.5 mg/kg i.p. given alone)?
Answer: only partly reduced AIM

Question: And the “L-DOPA-induced dyskinesia (AIMs)” value [2, 6]?
Answer: significantly reduced L-DOPA-induced dyskinesia

Question: And the “CL/F IIV (inter-individual variability)” value [3, 7]?
Answer: 37%

Question: And the “ka IIV (inter-individual variability)” value [3, 7]?
Answer: 5.4%

Question: What about the “tvQ/F (inter-compartmental clearance)” value [3, 8] of the same compound?
Answer: 18 (11) L/h/kg

Question: And the “tvTlag (absorption lag-time)” value [3, 8]?
Answer: no observable lag-time

Question: What about the “tvV2/F (volume of peripheral compartment)” value [3, 8] of the same compound?
Answer: 1259 (29) L/kg

Question: And the “tvV/F (volume of central compartment)” value [3, 8]?
Answer: 3.9 (26) L/kg

Question: And the “tvka (absorption rate)” value [3, 8]?
Answer: 1.0 (13) h^-1

Question: And the “tyCL/F (clearance)” value [3, 8]?
Answer: 13 (124) L/h/kg

Question: What about the “Time of maximum plasma concentration” value [3] of the same compound?
Answer: around 0.5 h

Question: For Fc1ccc(-c2cncc(CNC[C@H]3CCc4ccccc4O3)c2)cc1 [sarizotan, 1-[(2R)-3,4-dihydro-2H-chromen-2-yl]-N-([5-(4-fluorophenyl)pyridin-3-yl]methyl)methanamine], which “Effect on LID” value ([4]; phase 2A study and open labeled study) is on record?
Answer: reduced LID

Question: And the “Effect compared to placebo” value ([4]; several large phase 2b studies)?
Answer: no significant effects

Question: Which results are given for O=C1[C@@H]2[C@@H]3CC[C@@H](C3)[C@@H]2C(=O)N1CCCCN1CCN(c2ncccn2)CC1 [tandospirone, (1R,2R,6S,7S)-4-{4-[4-(pyrimidin-2yl)piperazin-1-yl]butyl}-4-azatricyclo[5.2.1.02,6]decane-3,5-dione]?
Answer: L-DOPA induced AIMs ([2]; tandospirone 1 mg/kg i.p. alone): partially and briefly reduce AIMs; L-DOPA induced AIMs ([2]; tandospirone 2 mg/kg i.p. alone): partially and briefly reduce AIMs; L-DOPA-induced dyskinesia (AIMs) [2, 6]: significantly reduced L-DOPA-induced dyskinesia

Question: With CN(C)CCc1c[nH]c2ccc(C[C@H]3COC(=O)N3)cc12 [zolmitriptan, (S)-4-({3-[2-(dimethylamino)ethyl]-1H-indol-5-yl}methyl)-1,3-oxazolidin-2-one] as the compound, how does the “Time plasma concentration is sustained above limit of quantification” value ([3]; batch 0614/2012, LLOQ 0.5 ng/mL) read?
Answer: 12 h

Question: And the “Absorption rate, slower compared to buspirone” value ([3]; batch 0614/2012, model)?
Answer: 3 fold

Question: What about the “V/F IIV (inter-individual variability)” value [3, 7] of the same compound?
Answer: 0.1%

Question: And the “tvTlag (absorption lag-time)” value [3, 8]?
Answer: 0.44 h

Question: What about the “tvV/F (volume of central compartment)” value [3, 8] of the same compound?
Answer: 16 (62) L/kg

Question: And the “tvka (absorption rate)” value [3, 8]?
Answer: 0.32 (55) h^-1

Question: What about the “tyCL/F (clearance)” value [3, 8] of the same compound?
Answer: 7.0 (11) L/h/kg

Question: What about the “tvTlag (absorption lag-time)” value ([3]; batch 0614/2012, non-linear mixed effects modelling, value (% CV), listed as Zolmitriptan) of the same compound?
Answer: 0.44 (3.8) h

Question: What about the “Time of maximum plasma concentration” value [3] of the same compound?
Answer: 4 h

Question: What about the “Inhibition of LID in an animal model for LID” value [5] of the same compound?
Answer: generally fails to inhibit LID

Source: US10561618B2, “Orally available pharmaceutical formulation suitable for improved management of movement disorders” (Contera Pharma ApS, priority 2012, dated 2020)
